{"source": "patent US6635432B1", "about": "“Peptide potentiation of acid-sensory ion channel in pain” (University of Iowa Research Foundation, priority 2000, dated 2003)", "assay_type_in_all_cases": "cell-based", "key": {"[1]": {"target": "T1, ASICα (Homo sapiens, UniProt P78348)", "T1 sequence (P78348 1-528)": "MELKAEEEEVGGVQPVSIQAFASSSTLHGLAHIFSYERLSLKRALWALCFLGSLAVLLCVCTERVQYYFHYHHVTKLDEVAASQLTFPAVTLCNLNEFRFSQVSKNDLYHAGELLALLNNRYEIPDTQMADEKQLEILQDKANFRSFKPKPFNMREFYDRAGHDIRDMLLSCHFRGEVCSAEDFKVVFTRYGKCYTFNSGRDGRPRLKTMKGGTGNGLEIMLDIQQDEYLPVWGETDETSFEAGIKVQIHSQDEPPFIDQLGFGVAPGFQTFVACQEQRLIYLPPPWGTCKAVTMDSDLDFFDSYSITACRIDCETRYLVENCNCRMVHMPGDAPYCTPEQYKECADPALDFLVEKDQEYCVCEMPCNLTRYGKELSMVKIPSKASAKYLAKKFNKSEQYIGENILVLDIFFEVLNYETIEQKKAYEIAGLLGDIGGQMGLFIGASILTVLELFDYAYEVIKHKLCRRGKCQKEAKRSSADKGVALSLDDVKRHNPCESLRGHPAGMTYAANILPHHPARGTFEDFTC", "assay": "Two-electrode voltage-clamp of Xenopus oocytes expressing ASICα", "parameters": "expressed in transfected cells; host or cells: Xenopus laevis oocytes (nuclear injection of pMT3 plasmid)", "conditions": "for effect on H+-gated ASICα current (inactivation, sustained current): pH 5, agents 50 μM (A18Famide 25 μM), added prior to and during acidification", "source_text": "Human ASICα was cloned from brain polyA RNA. Rat ASICβ and mouse DRASIC were cloned from DRG RNA. Human BNC1 was cloned as described in Price et al. (1996)(Price, M. P., Snyder, P. M., and Welsh, M. J. (1996). Cloning and expression of a novel human brain Na^+ channel. J Biol Chem 271, 7879-7882). Constructs were cloned into pMT3 for expression.\n(§1) Expression of the cDNA constructs in Xenopus oocytes was accomplished by injection of plasmid DNA into the nucleus of defolliculated albino Xenopus laevis oocytes (Nasco, Fort Atkinson, Wis.) as described previously (Adams, C. M., Snyder, P. M., Price, M. P., and Welsh, M. J. (1998). Protons activate brain Na^+ channel 1 by inducing a conformational change that exposes a residue associated with neurodegeneration. J Biol Chem 273, 30204-30207). Plasmids were injected at concentrations of 100 ng/μl for most experiments. Oocytes were incubated in modified Barth's solution at 18° C. for 12-26 hr after injection. Cells injected with DRASIC were allowed to incubate for 24-48 hr before analysis.\nWhole-cell currents in oocytes were measured using a two-electrode voltage-clamp as previously described (Adams, et al. (1998)). Oocytes were bathed in frog Ringers solution containing, in mM: 116 NaCl, LiCl or KCl, 0.4 CaCl2, MgCl2, 5 4-(2-hydroxyethyl)-1-piperazineethanesulfonic acid (HEPES), pH 7.4. Acidic solutions were buffered with 5 mM 2-(4-morpholino)-ethanesulfonic acid (MES) instead of HEPES. Membrane voltage was held at −60 mV unless otherwise noted. Most peptides and naloxone were obtained from Sigma Chemical Co. (St. Louis, Mont.) and were added to the extracellular solution. The peptide FRRFamide was synthesized by Research Genetics (Huntsville, Ala.)."}, "[2]": {"target": "T1, ASICα", "assay": "Whole-cell patch-clamp of HEK-293T cells transfected with ASICα", "parameters": "expressed in transfected cells", "conditions": "HEK293 cells; amiloride 100 μM, FMRFamide 100 μM, pH 5", "source_text": "Human ASICα was cloned from brain polyA RNA. Rat ASICβ and mouse DRASIC were cloned from DRG RNA. […] Constructs were cloned into pMT3 for expression.\nTo identify transfected cells, pGreenlantern vector encoding green fluorescent protein (Gibco, Gaithersburg, Md.) was co-transfected with ASICα at a ratio of 1:6; transfected cells were identified using epifluorescence microscopy. Cells were studied 1-2 days after transfection.\n(§2) The pipette solution contained, in mM: 120 KCl, 10 NaCl, 2 MgCl2, 5 EGTA, 10 HEPES. Perfusion of cells with different solutions was done by placing the appropriate outlet in front of the cell. Data were recorded with an AXOPATCH 200 (Axon Instruments, Foster City, Calif.) and stored on a digital tape recorder. Digitization was executed by acquiring data at 400 Hz using pClamp6 (Axon Instruments, Foster City, Calif.)."}, "[3]": {"system": "proton-gated currents in cultured rat DRG neurons", "assay": "Whole-cell patch-clamp of proton-gated currents in cultured DRG neurons", "method": "Rat DRG neurons were cultured from Norway rats as described in Benson et al. (1999)(Benson, C. J., Eckert, S. P., and McCleskey, E. W. (1999). Acid-evoked currents in cardiac sensory neurons: A possible mediator of myocardial ischemic sensation. Circulation Research 84, 921-928). Cells were allowed to incubate overnight at room temperature and studies were done 1 to 2 days after isolation.\nas §2, with “During whole-cell patch-clamping of DRG neurons and transfected HEK-293T cells, the cells were bathed with an extracellular solution that contained, in mM: 128 NaCl, 5 MgCl2, 1.8 CaCl2, 5.4 KCl, 5.55 glucose, 20 HEPES, pH 7.5 or 5. The” for “The”\nWhole-cell patch-clamp recordings were used to investigate the effect of FMRFamide on proton-gated currents in cultured rat DRG neurons. As previously reported (Akaike, N., and Ueno, S. (1994). Proton-induced current in neuronal cells. Prog Neurobiol 43, 73-83), acidification to pH 5 produced rapidly activating and inactivating currents in the sensory neurons of the DRG (FIGS. 1A-D). […] The presence of the neuropeptide immediately before acidification also altered inactivation (FIGS. 1C, 1D)."}, "[4]": {"target": "T2, BNC1 (Homo sapiens, UniProt Q16515)", "T2 construct": "expressed in transfected cells; host or cells: Xenopus laevis oocytes (nuclear injection of pMT3 plasmid)", "T2 sequence (Q16515 1-512)": "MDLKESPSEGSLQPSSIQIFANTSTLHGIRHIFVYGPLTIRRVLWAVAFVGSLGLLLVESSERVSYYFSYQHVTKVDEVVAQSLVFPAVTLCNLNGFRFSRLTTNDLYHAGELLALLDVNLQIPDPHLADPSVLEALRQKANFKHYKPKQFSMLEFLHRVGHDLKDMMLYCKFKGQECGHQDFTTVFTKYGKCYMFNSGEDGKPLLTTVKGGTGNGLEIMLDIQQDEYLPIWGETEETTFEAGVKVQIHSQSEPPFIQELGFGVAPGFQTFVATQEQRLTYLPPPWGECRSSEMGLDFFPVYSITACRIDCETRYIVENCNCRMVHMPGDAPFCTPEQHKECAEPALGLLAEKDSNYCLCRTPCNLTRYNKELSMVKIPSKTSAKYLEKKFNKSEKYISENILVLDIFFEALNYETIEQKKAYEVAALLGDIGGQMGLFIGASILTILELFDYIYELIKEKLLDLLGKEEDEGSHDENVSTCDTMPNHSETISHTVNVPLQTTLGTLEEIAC", "assay": "Two-electrode voltage-clamp of Xenopus oocytes expressing BNC1", "conditions": "pH 5", "source_text": "(§3) Human ASICα was cloned from brain polyA RNA. Rat ASICβ and mouse DRASIC were cloned from DRG RNA. Human BNC1 was cloned as described in Price et al. (1996)(Price, M. P., Snyder, P. M., and Welsh, M. J. (1996). Cloning and expression of a novel human brain Na^+ channel. J Biol Chem 271, 7879-7882). Constructs were cloned into pMT3 for expression. The validity of the constructs was confirmed by DNA sequencing.\nas §1\n(§4) Whole-cell currents in oocytes were measured using a two-electrode voltage-clamp as previously described (Adams, et al. (1998)). […]"}, "[5]": {"target": "T3, DRASIC (Mus musculus, UniProt Q6X1Y6)", "T3 construct": "expressed in transfected cells; host or cells: Xenopus laevis oocytes (nuclear injection of pMT3 plasmid)", "T3 sequence (Q6X1Y6 1-530)": "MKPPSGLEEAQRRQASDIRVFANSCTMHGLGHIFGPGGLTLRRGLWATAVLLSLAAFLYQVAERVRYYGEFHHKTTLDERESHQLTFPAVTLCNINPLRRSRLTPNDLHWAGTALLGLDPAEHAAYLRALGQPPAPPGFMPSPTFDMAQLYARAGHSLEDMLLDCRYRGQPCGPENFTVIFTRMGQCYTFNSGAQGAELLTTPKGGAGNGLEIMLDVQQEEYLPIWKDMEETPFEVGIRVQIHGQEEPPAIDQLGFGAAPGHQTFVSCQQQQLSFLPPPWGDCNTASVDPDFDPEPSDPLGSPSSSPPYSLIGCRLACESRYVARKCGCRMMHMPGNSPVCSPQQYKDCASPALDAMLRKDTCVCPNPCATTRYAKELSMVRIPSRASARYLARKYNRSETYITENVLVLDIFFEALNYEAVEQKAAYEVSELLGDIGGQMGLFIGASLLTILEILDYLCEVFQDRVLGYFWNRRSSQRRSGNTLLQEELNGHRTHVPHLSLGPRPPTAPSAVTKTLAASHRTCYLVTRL", "assay": "Two-electrode voltage-clamp of Xenopus oocytes expressing DRASIC", "conditions": "neuropeptide FF 50 μM added prior to acidification", "source_text": "as §3, §1, §4"}, "[6]": {"target": "T4, ASICβ (Rattus norvegicus, UniProt P55926)", "T4 construct": "expressed in transfected cells; host or cells: Xenopus laevis oocytes (nuclear injection of pMT3 plasmid)", "T4 sequence (P55926 1-559 isoform P55926-3)": "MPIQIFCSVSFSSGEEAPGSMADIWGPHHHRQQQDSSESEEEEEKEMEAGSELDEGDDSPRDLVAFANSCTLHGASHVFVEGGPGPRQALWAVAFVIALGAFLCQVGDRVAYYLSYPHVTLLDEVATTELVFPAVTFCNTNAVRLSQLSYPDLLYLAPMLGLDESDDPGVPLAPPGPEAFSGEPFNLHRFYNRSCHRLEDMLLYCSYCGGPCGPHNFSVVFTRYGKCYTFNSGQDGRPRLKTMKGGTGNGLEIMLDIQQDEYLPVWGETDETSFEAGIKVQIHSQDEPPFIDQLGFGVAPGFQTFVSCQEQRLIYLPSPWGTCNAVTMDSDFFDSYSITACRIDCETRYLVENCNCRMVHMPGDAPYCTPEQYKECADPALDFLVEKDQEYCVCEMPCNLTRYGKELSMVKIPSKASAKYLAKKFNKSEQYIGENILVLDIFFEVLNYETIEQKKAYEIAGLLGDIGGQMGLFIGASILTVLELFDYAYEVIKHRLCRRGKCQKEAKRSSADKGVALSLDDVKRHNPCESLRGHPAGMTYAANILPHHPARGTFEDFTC", "assay": "Two-electrode voltage-clamp of Xenopus oocytes expressing ASICβ", "conditions": "pH 5, peptide 50 μM", "source_text": "as §3, §1, §4"}}, "note": "Where no end group is shown, it is not given here."}
{"compound": "N=C(N)NC(=O)c1nc(Cl)c(N)nc1N", "note": "[amiloride]", "values": [{"measurement": "effect of amiloride on FMRFamide-induced sustained current", "setting": "[1]; amiloride 1 mM, FMRFamide 50 μM, pH 5", "value": "inhibited"}, {"measurement": "effect of amiloride on FMRFamide-induced sustained current", "setting": "[2]", "value": "inhibited"}]}
{"compound": "CN1CC[C@]23c4c5ccc(O)c4O[C@H]2[C@@H](O)C=C[C@H]3[C@H]1C5", "note": "[morphine]", "values": [{"measurement": "mimicking of the FMRFamide effect on proton-gated current", "setting": "[3]; morphine 50 μM", "value": "did not mimic it"}, {"measurement": "effect on H+-gated ASICα current (inactivation, sustained current)", "setting": "[1]", "value": "neither morphine nor naloxone altered ASICα current"}]}
{"compound": "C=CCN1CC[C@]23c4c5ccc(O)c4O[C@H]2C(=O)CC[C@@]3(O)[C@H]1C5", "note": "[naloxone]", "values": [{"measurement": "block of the FMRFamide effect on proton-gated current", "setting": "[3]; naloxone 100 μM", "value": "did not block the effect of FMRFamide"}, {"measurement": "effect of naloxone on FMRFamide-induced ASICα sustained current", "setting": "[1]; naloxone 500 μM applied before FMRFamide 50 μM, pH 5", "value": "neither morphine nor naloxone altered ASICα current"}]}
{"compound": "A18Famide: mammalian FMRFamide-like peptide, terminates with the sequence PQRFamide (AGEGLNSQFWSLAAPQRF-NH2; UniProt O15130 93-110, looked up)", "values": [{"measurement": "effect on H+-gated ASICα current (inactivation, sustained current)", "setting": "[1]", "value": "Neither A18Famide nor MERF altered ASICα current"}]}
{"compound": "Phe-Leu-Phe-Gln-Pro-Gln-Arg-Phe-amide [neuropeptide FF]", "values": [{"measurement": "size of effects compared with FMRFamide", "setting": "[3]; pH 5, 50 μM each", "value": "smaller than those generated by FMRFamide"}, {"measurement": "effect on inactivation of proton-gated current and sustained current", "setting": "[3]; pH 5, FMRFamide 50-100 μM, neuropeptide FF 50 μM", "value": "altered inactivation of proton-gated DRF currents"}, {"measurement": "current generated by agent added alone", "setting": "[3]; without acidification", "value": "generated no current on its own"}, {"measurement": "effect on acid-gated BNC1 currents", "setting": "[4]", "value": "appeared unaffected"}, {"measurement": "effect on inactivation of H+-gated DRASIC currents", "setting": "[5]", "value": "slowed the inactivation of H^+-gated DRASIC currents"}, {"measurement": "effect on H+-gated ASICα current (inactivation, sustained current)", "setting": "[1]", "value": "produced only minor effects on inactivation rate but no sustained current"}, {"measurement": "effect on H+-gated ASICα current (inactivation, sustained current)", "setting": "[1]; listed as Neuropeptide FF", "value": "subtle effects on ASICα currents, slowing inactivation but not generating appreciable sustained current"}, {"measurement": "effect on H+-gated ASICβ current (inactivation, sustained current)", "setting": "[6]", "value": "appeared unaffected"}]}
{"compound": "metenkephalin-Arg-Phe (YGGFMRF; Met-enkephalin-Arg-Phe; UniProt P01210 261-267, looked up) [MERF]", "values": [{"measurement": "effect on H+-gated ASICα current (inactivation, sustained current)", "setting": "[1]", "value": "Neither A18Famide nor MERF altered ASICα current"}]}
